# Test results: PubChem BioAssay AID2060895 (Molecular Pharmacology Branch, DTP, NCI, 2025)
# Tested on: PDC 899932-113-R3-J6 complex spheroid viability
# Assay: Anticancer human tumor 899932-113-R3-J6-PDC patient-derived melanoma cell line growth inhibition [RAS]
# Conditions: for IC50: curve of first compound; for viability, T/C: stronger effect = lower value
# Excerpt: RAS pathway inhibitors in Combinations in Complex Spheroids
# A high-throughput screen of multi-cell type tumor spheroids was designed to identify active combinations of RAS pathway inhibitors and targeted small molecules. Complex spheroids include a stromal component modeled by human endothelial cells (HUVEC) and fibroblasts modeled by human mesenchymal stem cells (MSCs). The concentration ranges selected for each drug and investigational agent were based upon clinically achievable concentrations if the clinical Cmax of the agent was known.
# Compounds. The drugs and investigational agents: abemaciclib (NSC768073), cobimetinib (NSC768068), divarasib (GDC6063, NSC841802), docetaxel (NSC628503), GDC-1971 (RLY-1971, NSC841576), gemcitabine (NSC613327), inavolisib (NSC800729), ipatasertib (NSC767898), KB-0742 (NSC834161), MRTX-1133 (NSC836407), osimertinib (NSC779217), RMC-4630 (NSC839698), RMC-6236 (NSC851965), RMC-6291 (NSC852671), Ro-3306 (NSC812927), sapanisertib (NSC764658), SN-38 (NSC673596), staurosporine (NSC755774), SY5609 (NSC837396), and tovorafenib (DAY101, NSC766906), were obtained from the National Cancer Institute (NCI) Developmental Therapeutics Program Chemical Repository. The FDA-approved anticancer drug set is available from the NCI Developmental Therapeutics Program. […] The stock solutions were prepared in dimethyl sulfoxide (DMSO, Sigma-Aldrich, St. Louis, MO, cat. D2650) at 800-fold the tested concentration and stored at -70 degrees C prior to their use. All drugs and investigational agents were tested over a range starting from a high concentration at or near the clinical Cmax and decreasing in half-log increments. If the clinical Cmax for an agent had not been determined, the highest concentration tested was 10 microM.
# Cell Culture. All cells were maintained in an incubator at 37 degrees C and 5% CO2 with 95% humidity. The PDC lines were cultured according to standard operating procedures established by the NCI PDMR. All PDCs were thawed and cultured in Matrigel-coated flasks prepared with a working solution of 1X Ham's F-12 nutrient mix, without supplementation (Invitrogen, Waltham, MA, cat. 11765054), 100 U/mL penicillin-streptomycin (Invitrogen, cat. 15140122), and 2.5% Matrigel (Corning Inc., Corning, NY, cat. 354248) for the first three passages. The 362531-283-R-J2-PDC and 782815-120-R-J1-PDC lines were cultured in 6C/Colon 1B media, which includes advanced DMEM/F-12 (Thermo Fisher Scientific, cat. 12634028), 10 mM HEPES (Thermo Fisher Scientific, cat. 15630080), 1X GlutaMAX supplement (Thermo Fisher Scientific, cat. 35050061), 0.1 mg/mL primocin (InvivoGen, San Diego, CA, cat. ant-pm-2), 10% defined fetal bovine serum, heat inactivated (HyClone Laboratories Inc., Logan, UT, cat. SH30070.03HI), 50% L-WRN conditioned media (ATCC, cat. CRL-3276), 1.25 mM N-Acetyl-L-cysteine (Sigma-Aldrich, cat. A9165), 10 mM nicotinamide (Sigma-Aldrich, cat. N0636), 1X B-27 supplement (Thermo Fisher Scientific, cat. 17504044), 1X N-2 supplement (Thermo Fisher Scientific, cat. 17502048), 50 ng/mL human EGF (Thermo Fisher Scientific, cat. PHG0311), and 10 microM Y-27632 dihydrochloride (Tocris Bioscience, cat. 1254). The K12877-001-R-J1-PDC line was cultured in 6I media, which includes all 6C/Colon 1B media plus 10 ng/mL human FGF-10 (PeproTech, cat. 100-26), 1 ng/mL human FGF-2 (PeproTech, cat. 100-18B), 1 µM prostaglandin E2 (Tocris Bioscience, cat. 2296), […] hydrocortisone (Sigma-Aldrich, cat. H4001), and […] bovine insulin (Sigma-Aldrich, cat. I6634). The K86415-001-R-J1-PDC line was cultured in 6D media, which includes all 6C/Colon 1B media components minus the L-WRN conditioned media. The 485176-168-R4-J1-PDC was cultured in PANC media, which includes all 6C/Colon 1B media plus 100 ng/mL human FGF-10 (PeproTech, cat. 100-26), 500 nM SB-431542 (Selleckchem, cat. S1067), and 10 nM gastrin (Tocris Bioscience, cat. 3006). […]
# 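Throughout, for viability, T/C: spheroids exposed to agents for seven days before readout; 100% = DMSO vehicle control wells.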
smiles,measurement,setting,value
Cc1nc(N2CCC3(CC2)COC(C)C3N)c(CO)nc1Sc1ccnc(N)c1Cl (centres undefined) + C=CC(=O)N1CCN(c2nc(OCC3CCCN3C)nc3c(F)c(-c4nc(N)cc(C)c4C(F)(F)F)c(Cl)cc23)C(C)C1,IC50,second compound 0.00316 µM,> 10 µM
same,IC50,second compound 0.01 µM,> 10 µM
same,IC50,second compound 0.0316 µM,> 10 µM
same,IC50,second compound 0.1 µM,> 10 µM
same,IC50,second compound 0.316 µM,> 10 µM
same,IC50,second compound 1 µM,> 10 µM
same,"viability, T/C","second compound 0.00316 µM, first compound 0.0316 µM",110%
same,"viability, T/C","second compound 0.00316 µM, first compound 0.1 µM",96.4%
same,"viability, T/C","second compound 0.00316 µM, first compound 0.316 µM",102%
same,"viability, T/C","second compound 0.00316 µM, first compound 1 µM",108%
same,"viability, T/C","second compound 0.00316 µM, first compound 3.16 µM",115%
same,"viability, T/C","second compound 0.00316 µM, first compound 10 µM",127%
same,"viability, T/C","second compound 0.01 µM, first compound 0.0316 µM",106%
same,"viability, T/C","second compound 0.01 µM, first compound 0.1 µM",109%
same,"viability, T/C","second compound 0.01 µM, first compound 0.316 µM",113%
same,"viability, T/C","second compound 0.01 µM, first compound 1 µM",107%
same,"viability, T/C","second compound 0.01 µM, first compound 3.16 µM",119%
same,"viability, T/C","second compound 0.01 µM, first compound 10 µM",118%
same,"viability, T/C","second compound 0.0316 µM, first compound 0.0316 µM",99.7%
same,"viability, T/C","second compound 0.0316 µM, first compound 0.1 µM",98.5%
same,"viability, T/C","second compound 0.0316 µM, first compound 0.316 µM",117%
same,"viability, T/C","second compound 0.0316 µM, first compound 1 µM",108%
same,"viability, T/C","second compound 0.0316 µM, first compound 3.16 µM",120%
same,"viability, T/C","second compound 0.0316 µM, first compound 10 µM",126%
same,"viability, T/C","second compound 0.1 µM, first compound 0.0316 µM",99.5%
same,"viability, T/C","second compound 0.1 µM, first compound 0.1 µM",108%
same,"viability, T/C","second compound 0.1 µM, first compound 0.316 µM",107%
same,"viability, T/C","second compound 0.1 µM, first compound 1 µM",113%
same,"viability, T/C","second compound 0.1 µM, first compound 3.16 µM",120%
same,"viability, T/C","second compound 0.1 µM, first compound 10 µM",124%
same,"viability, T/C","second compound 0.316 µM, first compound 0.0316 µM",126%
same,"viability, T/C","second compound 0.316 µM, first compound 0.1 µM",111%
same,"viability, T/C","second compound 0.316 µM, first compound 0.316 µM",108%
same,"viability, T/C","second compound 0.316 µM, first compound 1 µM",106%
same,"viability, T/C","second compound 0.316 µM, first compound 3.16 µM",108%
same,"viability, T/C","second compound 0.316 µM, first compound 10 µM",110%
same,"viability, T/C","second compound 1 µM, first compound 0.0316 µM",113%
same,"viability, T/C","second compound 1 µM, first compound 0.1 µM",106%
same,"viability, T/C","second compound 1 µM, first compound 0.316 µM",114%
same,"viability, T/C","second compound 1 µM, first compound 1 µM",116%
same,"viability, T/C","second compound 1 µM, first compound 3.16 µM",110%
same,"viability, T/C","second compound 1 µM, first compound 10 µM",114%
C[C@@H](NC(=O)c1ncnc(N)c1Cl)c1ncc(C(=O)Nc2cc(C(F)(F)F)c(Cl)cn2)s1 + CCn1c(-c2cc(N3CCN(C)CC3)cnc2C(C)OC)c2c3cc(ccc31)-c1csc(n1)CC(NC(=O)C1CC1C)C(=O)N1CCCC(N1)C(=O)OCC(C)(C)C2,IC50,second compound 0.000949 µM,5.63 µM
same,IC50,second compound 0.003 µM,2.6 µM
same,IC50,second compound 0.00949 µM,< 0.0316 µM
same,IC50,second compound 0.03 µM,< 0.0316 µM
same,IC50,second compound 0.0949 µM,< 0.0316 µM
same,IC50,second compound 0.3 µM,< 0.0316 µM
same,"viability, T/C","second compound 0.000949 µM, first compound 0.0316 µM",104%
same,"viability, T/C","second compound 0.000949 µM, first compound 0.1 µM",113%
same,"viability, T/C","second compound 0.000949 µM, first compound 0.316 µM",124%
same,"viability, T/C","second compound 0.000949 µM, first compound 1 µM",127%
same,"viability, T/C","second compound 0.000949 µM, first compound 3.16 µM",82%
same,"viability, T/C","second compound 0.000949 µM, first compound 10 µM",18.2%
same,"viability, T/C","second compound 0.003 µM, first compound 0.0316 µM",66.6%
same,"viability, T/C","second compound 0.003 µM, first compound 0.1 µM",76.1%
same,"viability, T/C","second compound 0.003 µM, first compound 0.316 µM",83.8%
same,"viability, T/C","second compound 0.003 µM, first compound 1 µM",82.1%
same,"viability, T/C","second compound 0.003 µM, first compound 3.16 µM",44.4%
same,"viability, T/C","second compound 0.003 µM, first compound 10 µM",12%
same,"viability, T/C","second compound 0.00949 µM, first compound 0.0316 µM",8.34%
same,"viability, T/C","second compound 0.00949 µM, first compound 0.1 µM",12.9%
same,"viability, T/C","second compound 0.00949 µM, first compound 0.316 µM",15.3%
same,"viability, T/C","second compound 0.00949 µM, first compound 1 µM",13.6%
same,"viability, T/C","second compound 0.00949 µM, first compound 3.16 µM",9.29%
same,"viability, T/C","second compound 0.00949 µM, first compound 10 µM",4.48%
same,"viability, T/C","second compound 0.03 µM, first compound 0.0316 µM",3.38%
same,"viability, T/C","second compound 0.03 µM, first compound 0.1 µM",2.96%
same,"viability, T/C","second compound 0.03 µM, first compound 0.316 µM",2.78%
same,"viability, T/C","second compound 0.03 µM, first compound 1 µM",2.66%
same,"viability, T/C","second compound 0.03 µM, first compound 3.16 µM",2.41%
same,"viability, T/C","second compound 0.03 µM, first compound 10 µM",2.96%
same,"viability, T/C","second compound 0.0949 µM, first compound 0.0316 µM",2.75%
same,"viability, T/C","second compound 0.0949 µM, first compound 0.1 µM",2.95%
same,"viability, T/C","second compound 0.0949 µM, first compound 0.316 µM",2.73%
same,"viability, T/C","second compound 0.0949 µM, first compound 1 µM",2.82%
same,"viability, T/C","second compound 0.0949 µM, first compound 3.16 µM",2.56%
same,"viability, T/C","second compound 0.0949 µM, first compound 10 µM",2.32%
same,"viability, T/C","second compound 0.3 µM, first compound 0.0316 µM",2.53%
same,"viability, T/C","second compound 0.3 µM, first compound 0.1 µM",2.03%
same,"viability, T/C","second compound 0.3 µM, first compound 0.316 µM",2.73%
same,"viability, T/C","second compound 0.3 µM, first compound 1 µM",2.35%
same,"viability, T/C","second compound 0.3 µM, first compound 3.16 µM",3.08%
same,"viability, T/C","second compound 0.3 µM, first compound 10 µM",2.77%
